According to article PMC8615111, “Phenolic Thiazoles with Antioxidant and Antiradical Activity. Synthesis, In Vitro Evaluation, Toxicity, Electrochemical Behavior, Quantum Studies and Antimicrobial Screening” (Antioxidants, 2021):
pIC50: −log10 of the molar value. Where two headings read alike, the source gives them in different places.

How the values were obtained:
[1] = ABTS˙^+ radical scavenging assay; type: biochemical; conditions: for IC50: ABTS˙^+ scavenging
Method: The assay was based on the decolorization of green (2,2′-azinobis-(3-ethylbenzothiazoline-6-sulfonic acid) ABTS˙^+ to ABTS, on the principle reported by Re et al. and was carried out according to our previously published research.
Later, 1950 µL of ABTS˙^+ reagent was added to all cuvettes and they were shaken for well over 10 min in the dark at room temperature. The absorbance of the resulted solutions found in cuvettes was determined spectrophotometrically at λ = 734 nm. The ABTS scavenging activity of the compounds was calculated using the following Equation (1):(1) ABTS scavenging (%)=control absorbance−sample absorbance/control absorbance×100

[2] = DPPH˙ radical scavenging assay; type: biochemical; conditions: for IC50: DPPH˙ scavenging
Method: The 2,2-diphenyl-1-picrylhydrazyl (DPPH˙) radical scavenging assay is based on the transfer of one hydrogen from the analyzed compound to the violet radical DPPH˙. This will convert it to a yellow compound, the change in absorbance being proportional to the amount of DPPH˙ neutralized, according to Brand-Williams et al..
The preparation of the DPPH˙ reagent was previously reported by our group. […] Over the previous quantities, DMSO was added until a total volume of 50 µL was obtained in all cuvettes, and 1950 µL of DPPH˙ solution was added to all cuvettes; then, they were shaken for well over 10 min in the dark at room temperature. The absorbances of the solutions were measured at λ = 517 nm. The DPPH˙ radical scavenging activity of evaluated compounds was calculated using Equation (2):(2) DPPH scavenging (%)=control absorbance−sample absorbance/control absorbance×100

[3] = NO˙ radical scavenging assay (Griess reaction); type: biochemical; conditions: 100 µL of test solution 1 mg/mL in DMSO, 150 min, pH 7.4
Method: Scavenging of the NO˙ radical was performed according to some adapted protocols reported in the literature, based on the nitroprusside decomposition at physiological pH and colorimetric quantification of the resulted products using the Griess reaction.
Over 200 µL of 10 mM sodium nitroprusside, 100 µL of test solutions (1 mg/mL in DMSO), and 400 µL phosphate-buffered saline (PBS, pH = 7.4) were added. The mixture was then incubated at room temperature for 150 min on a rotating shaker (GFL Gesellschaft für Labortechnik, Burgwedel, Germany). After that, 1 mL of sulfanilic acid 0.33% in 20% acetic acid was added and after 5 min, 1 mL of naphthylethylenediamine […] 0.1% was added to all test tubes. After 30 min, the absorbance of the sample, given by the chromophore (azo dye) formed during the diazotization of nitrite ions resulting from decomposition of sodium nitroprusside with sulfanilic acid and coupled with naphthylethylenediamine, was measured at 546 nm. The NO˙ radical scavenging activity of the tested compounds was calculated using Equation (3):(3) NO˙ scavenging (%)=control absorbance−sample absorbance/control absorbance×100

[4] = Fe^2+ chelation assay; type: biochemical
Method: The protocol used for assessing Fe^2+ chelating capacity of the compounds was adapted from a report of Benzie and Strain and previously reported by our group. The iron(II) chelation ability of compounds was calculated using Equation (7):(7) iron chelation (%)=control absorbance−sample absorbance/control absorbance×100
The chelating potential for the ferrous ions of the new compounds was determined, based on their competition for Fe^2+ with ferrozine.

[5] = Cu^2+ chelation assay; type: biochemical
[6] = tested on: C. albicans ATCC 102310; assay: Antifungal activity, modified microdilution; type: cell-based; conditions: Candida albicans, ATCC102310
Method: For evaluating the antimicrobial activity of the compounds, […] aerobic microbial strains were used: S. aureus ATCC 25923, S. pyogenes ATCC 19615, P. aeruginosa ATCC 27853, S. enterica ISM 83/37, S. typhimurium ATCC 14028, E. coli ATCC 8739, E. coli ATCC 25922, and C. albicans ATCC 102310 obtained from Food Biotechnology Laboratory, Life Sciences Institute, University of Agricultural Sciences, and Veterinary Medicine Cluj Napoca, where the experiment was performed. The antimicrobial activity of the compounds was determined using a modified microdilution technique, and the followed protocol was previously reported.
The antimicrobial activity of the final compounds, against seven aerobic microbial strains (S. aureus ATCC 25923, S. pyogenes ATCC 19615, P. aeruginosa ATCC 27853, S. enterica ISM 83/37, S. typhimurium ATCC 14028, E. coli ATCC 8739, E. coli ATCC 25922), and a fungal strain (C. albicans ATCC 102310), was determined using a modified microdilution technique.
The results of the antimicrobial activity evaluation of the compounds, in comparison to norfloxacin and chloramphenicol used as standard antibiotics and fluconazole used as reference antifungal, are depicted in Table 10.

[7] = tested on: HaCaT cells; assay: Cytotoxicity determination, MTT method; type: cell-based; conditions: Homo sapiens, HaCaT cells, MTT, 24 h; for pIC50: read-out: IC50; for IC50: read-out: IC50 (µg/mL)
Method: To determine the cytotoxic action of the obtained compounds 5[…], and 8a-b, a normal human keratinocytes cell line was used (HaCaT keratinocytes, CLS-300493, Eppelheim, Germany). HaCaT cells were cultured in Dulbecco's Modified Eagle Media (DMEM) supplemented with 1% L-glutamine, 1% penicillin-streptomycin, and 5% fetal bovine serum. At 80% confluence, the cells were transferred to 96 well plates at a confluence of 12×10^3 cells/well and left to attach for 24 h at 37°C and 5% CO2 in a humidified atmosphere. […] After 24 h, the culture media was replaced with 100 μL of MTT solution at a final concentration of 5 μg/mL/well and left to interact with the cells for 2 h in the incubator. After this, the MTT solution was replaced with 100 μL of isopropanol, left to dissolve the formazan crystals for 5 min, and read at 550 and 630 nm using a BioTek Epoch plate reader (BioTek Instruments, Winooski, VT, USA) and Gen5 software (version 1.09).

SMILES | % of ABTS˙^+ Scavenged ([1]; 0.5 µg/mL) [%] | % of ABTS˙^+ Scavenged ([1]; 0.75 µg/mL) [%] | % of ABTS˙^+ Scavenged ([1]; 1 µg/mL) [%] | % of ABTS˙^+ Scavenged ([1]; 1.5 µg/mL) [%] | % of ABTS˙^+ Scavenged ([1]; 2.5 µg/mL) [%] | IC50 [1] [mg/L] | % of DPPH˙ Scavenged ([2]; 1 µg/mL) [%] | % of DPPH˙ Scavenged ([2]; 1.5 µg/mL) [%] | % of DPPH˙ Scavenged ([2]; 2 µg/mL) [%] | % of DPPH˙ Scavenged ([2]; 3 µg/mL) [%] | % of DPPH˙ Scavenged ([2]; 5 µg/mL) [%] | IC50 [2] [mg/L] | % of NO˙ Scavenged [3] [%] | Chelation Capacity (%), ferrous ions ([4]; 50 µg/mL) [%] | Chelation Capacity (%), ferrous ions ([4]; 100 µg/mL) [%] | Chelation Capacity (%), ferrous ions ([4]; 150 µg/mL) [%] | Chelation Capacity (%), ferrous ions ([4]; 200 µg/mL) [%] | Chelation Capacity (%), cupric ions ([5]; 3.36 µg/mL) [%] | Chelation Capacity (%), cupric ions ([5]; 6.72 µg/mL) [%] | Chelation Capacity (%), cupric ions ([5]; 10.08 µg/mL) [%] | other results
Br.Oc1ccc(/C=N/Nc2nc(-c3ccccc3)cs2)c(O)c1 [Compound 6b, (E)-2-(2,4-dihydroxybenzylidene)-1-(4-phenylthiazol-2-yl)hydrazin-1-ium bromide] | 11.67 | 17.45 | 19.83 | 28.56 | 42.53 | 2.97 | 10.60 | 13.62 | 17.23 | 23.89 | 41.22 | 6.23 | 28.35 | 0.07 | 4.84 | 13.39 | 22.27 | 3.84 | 6.80 | 10.44 | Chelation Capacity (%), cupric ions ([5]; 13.44 µg/mL): 14.34%; Chelation Capacity (%), cupric ions ([5]; 16.80 µg/mL): 17.07%; MIC [6]: 62.5 mg/L; pIC50 [7]: > 5.90; IC50 [7]: < 0.5 µg/mL
Cl.Oc1ccc(/C=N/Nc2nc(-c3ccc(O)c(O)c3)cs2)c(O)c1 [Compound 8b, (E)-2-(2,4-dihydroxybenzylidene)-1-(4-(3,4-dihydroxyphenyl)thiazol-2-yl)hydrazin-1-ium chloride] | 40.09 | 44.44 | 50.79 | 66.66 | 96.82 | 0.91 | 39.38 | 47.41 | 54.37 | 67.84 | 91.38 | 1.72 | 46.30 | 10.74 | 18.15 | 25.06 | 33.38 | 7.34 | 11.97 | 16.62 | Chelation Capacity (%), cupric ions ([5]; 13.44 µg/mL): 20.30%; Chelation Capacity (%), cupric ions ([5]; 16.80 µg/mL): 26.71%; MIC ([6]; C. albicans ATCC 102310, read-out: MIC): > 100 mg/L; pIC50 [7]: 4.65; IC50 [7]: 8.54 µg/mL
Br.C/C(=N\Nc1nc(-c2ccccc2)cs1)c1ccc(O)cc1O [Compound 6a, (E)-2-(1-(2,4-dihydroxyphenyl)ethylidene)-1-(4-phenylthiazol-2-yl)hydrazin-1-ium bromide] | 4.75 | 7.92 | 12.68 | 22.21 | 36.01 | 3.34 | 5.90 | 9.07 | 12.87 | 19.88 | 38.13 | 6.56 | 20.58 | 0.07 | 7.14 | 14.50 | 25.03 | 6.33 | 10.30 | 13.65 | Chelation Capacity (%), cupric ions ([5]; 13.44 µg/mL): 15.90%; Chelation Capacity (%), cupric ions ([5]; 16.80 µg/mL): 18.67%; MIC [6]: > 100 mg/L; pIC50 [7]: 3.51; IC50 [7]: 127 µg/mL
